Patent US11274332B2, “Methods of administering 3,4-diaminopyridine” (SERB SA, priority 2011, dated 2022)

Tested on: human hepatocytes
Assay: In vitro metabolism of 14C-amifampridine in human hepatocytes (Example 3)
Format: in vitro ADME
Conditions: multiple donors
Description: The objective of this hepatocyte study was to determine the extent of metabolism, complete metabolic profile and metabolite characterization of amifampridine phosphate in several species with ^14C-amifampridine phosphate for a cross species comparison. The following procedures were used to study the metabolism in rat (Example 1), dog (Example 2), and human hepatocytes (Example 3).
The cryopreserved hepatocytes were removed from storage, quickly thawed in a 37° C. water bath for 1 to 2 min, and transferred to a 50 ml tube containing pre-warmed InVitroGRO HT medium (Celsis Inc., Baltimore). The cell suspension was mixed by gentle inversion and the cells were pelleted by centrifugation at 50 to 75×g for 5 min. The supernatant medium was removed and the cells were resuspended in Williams' Medium E. Hepatocyte viability was assessed by using trypan blue exclusion. Hepatocyte density was determined by counting cells with a hemocytometer and the density was adjusted with Williams' Medium E to achieve a final density of 1,000,000 cells/mL. […] The supernatant medium was removed and the cells were resuspended in cold Williams' Medium E. The cell density was then determined using a hemocytometer and the density was adjusted with Williams' Medium E to achieve a final density of 1,000,000 cells/mL. […]

SMILES: Nc1ccncc1N [3,4-DAP, 3,4-diaminopyridine]
- formation of single major acetylated amifampridine metabolite: variable
